Measured values: US12630527B2, “Broad spectrum anti-cancer compounds” (The Regents of the University of California, priority 2019, dated 2026)
Values belong to the compound of their own block, whether it stands above or below them.

Experiments:
[1] = biological target: T1, ALKBH5 (Homo sapiens, UniProt Q6P6C2); assay: Fluorescence enzymatic inhibition assay (m6A7-Broccoli / DFHBI-1T), ALKBH5; assay type: biochemical; details: for IC50: Permeability Data and IC50 tables the 33rd table/the 34th table, unit inferred; for inhibition of ALKBH5 at the highest concentration measured: highest concentration 40 μM
T1 construct: SUMO (N); His10 (N); made in house; host or cells: E. coli BL21
T1 sequence (Q6P6C2 whole entry): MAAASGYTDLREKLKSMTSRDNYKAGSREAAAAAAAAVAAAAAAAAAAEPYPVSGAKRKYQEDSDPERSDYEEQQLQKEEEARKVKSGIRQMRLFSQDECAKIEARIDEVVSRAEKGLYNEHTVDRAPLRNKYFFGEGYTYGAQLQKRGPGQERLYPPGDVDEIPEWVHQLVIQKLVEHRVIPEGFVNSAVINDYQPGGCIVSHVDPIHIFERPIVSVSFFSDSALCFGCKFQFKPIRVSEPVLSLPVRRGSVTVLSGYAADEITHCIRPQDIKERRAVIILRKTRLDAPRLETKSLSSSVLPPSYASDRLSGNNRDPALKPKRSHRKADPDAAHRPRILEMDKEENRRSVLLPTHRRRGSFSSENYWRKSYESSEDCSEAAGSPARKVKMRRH
Method: (§1) E. coli BL21 competent cells (New England Biolabs) were transformed with pET28-SUMO-His10-FTO plasmid (a generous gift from the Jaffrey lab) by heat shock and spread on a LB Kanamycin agar plate, then incubated overnight at 37° C. 2-3 colonies were picked and transferred to 5 mL of LB media treated with kanamycin (0.5 mg mL^−1 final concentration), then grown overnight shaking at 37° C. The overnight culture was then transferred to 2 L of LB kanamycin media and incubated at 37° C. until OD 0.8. The culture was cooled at 4° C. for 20 mins and induced with 0.5 mM isopropyl β-D-1-thiogalactopyranoside (IPTG), then grown shaken at 16° C. Cell pellets were collected by centrifugation (5,000 g for 10 min at 4° C.) and the supernatant was discarded. The pellets were resuspended in B-PER Bacterial Protein Extraction Reagent (6 mL per gram) with DNase 1 (5 U per mL, RNase-free) and incubated at 4° C. for 1 hour. The suspension was centrifuged at 10,000 g for 20 min and the supernatant was transferred to a Talon Metal Affinity Resin column that had been pre-equilibrized with binding buffer (50 mM NaH2PO4 pH 7.2, 300 mM NaCl, 20 mM imidazole, 1 mM β-mercaptoethanol in RNase-free water). […] The eluant was combined and transferred to a Slyde-A-Lyzer Dialysis Cassette (20,000 MWCO, Thermo Scientific) and dialyzed overnight at 4° C. against dialysis buffer (50 mM Tris-HCl pH 7.4, 100 mM NaCl, 5 mM B-mercaptoethanol, 5% (v/v) glycerol in RNase-free water). […] ALKBH5 was expressed and purified from pET28-SUMO-His10-ALKBH5 plasmid by the same procedure described above.
(§2) Inhibitors were added in concentrations ranging from 0.008-40 μM; all inhibitors were dissolved in DMSO and added to a final concentration of 0.2% DMSO. […] After incubation at room temperature for 2 hours, the plates were left at 4° C. overnight (16 hours) to allow DFHBI-1T to bind to A7-Broccoli RNA. […] Sigmoidal dose-response curves were fitted in GraphPad Prism 6. All assays were performed in triplicate, with additional repetitions added as necessary.

[2] = biological target: T2, FTO (Homo sapiens, UniProt Q9C0B1); assay: Fluorescence enzymatic inhibition assay (m6A7-Broccoli / DFHBI-1T), FTO; assay type: biochemical; details: for precipitation in assay buffer: dose response could not be determined
T2 construct: SUMO (N); His10 (N); made in house; host or cells: E. coli BL21
T2 sequence (Q9C0B1 whole entry): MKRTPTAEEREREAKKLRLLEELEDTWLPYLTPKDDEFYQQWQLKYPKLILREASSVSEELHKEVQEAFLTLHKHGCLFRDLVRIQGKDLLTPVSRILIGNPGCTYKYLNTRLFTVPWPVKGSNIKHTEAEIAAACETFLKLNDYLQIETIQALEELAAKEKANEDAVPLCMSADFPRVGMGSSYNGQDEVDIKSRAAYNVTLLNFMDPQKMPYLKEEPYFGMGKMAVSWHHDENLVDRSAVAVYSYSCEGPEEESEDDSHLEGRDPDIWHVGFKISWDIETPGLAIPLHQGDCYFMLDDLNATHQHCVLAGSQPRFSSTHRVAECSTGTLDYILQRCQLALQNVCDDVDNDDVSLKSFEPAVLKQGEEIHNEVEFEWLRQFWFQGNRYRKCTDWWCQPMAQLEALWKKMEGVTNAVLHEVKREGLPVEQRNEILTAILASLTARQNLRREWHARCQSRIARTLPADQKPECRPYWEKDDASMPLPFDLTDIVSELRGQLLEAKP
Method: In order to determine their efficacy as FTO inhibitors, the compounds were screened by a fluorescence enzymatic inhibition assay developed previously by the Jaffrey lab.^44 Briefly, a nonfluorescent methylated RNA substrate termed “m6A7-Broccoli” is incubated with FTO in the presence of 2-oxoglutarate (300 μM), (NH4)2Fe(SO4)2·6H2O (300 μM), and L-ascorbate (2 mM) for 2 hours at room temperature in reaction buffer (50 mM NaHEPES, pH 6).
as §1, §2

[3] = system: TS576 glioblastoma stem cells; assay: Tumorosphere (neurosphere) formation assay, TS576; assay type: cell-based, human; details: TS576, 30 μM, 2 days, vs vehicle control
Method: To understand the effects of our FTO inhibitors on the self-renewal properties of GSCs, tumorospheres cultured from the patient-derived GSC line TS576 were treated with 30 μM of FTO-04, FTO-10, FTO-11, or FTO-12 (FIG. 29A-29B; cell line gifted from the Furnari lab).^45, 46 The GSCs were cultured in sphere-forming assays for 24 hours, then treated with either inhibitors or DMSO control for 2 days. The size of the tumorospheres was calculated using ImageJ.
Early passaged GSCs were used to understand the efficacy of ALK-04 on the self-renewal capacity of GSCs by tumorsphere-formation assay as described earlier^10, 11. In brief, GSCs were seeded at 4×10^4 cells in 24 well plate and cultured for 3 days followed by treatment with ALK-04 inhibitors at 20 μM daily for 3 days. After 3 days of treatment the images of the tumorospheres were imaged with phase contrast microscope and size was measured with Image J, to understand the effects of drugs on the self-renewal of GSCs on sphere formation. This process was also repeated for healthy neural stem cells (hNSCs) treated daily with 20 μM ALK-04 for three days to assess the therapeutic ratio.

[4] = system: AGS; assay: High Throughput Screen for growth inhibition, AGS; assay type: cell-based; details: Gastric, 3 days, unit not given
Method: (§3) The High Throughput Screen method is described below. The endpoint readout of this assay is based upon quantitation of ATP as an indicator of viable cells.
(§4) Cell lines that have been preserved in liquid nitrogen are thawed and expanded in growth media (see Table 1-3). Once cells have reached expected doubling times, screening begins. Cells are seeded in growth media in black 384-well tissue culture treated plates at 500-1500 cells per well (as noted in Analyzer). Cells are equilibrated in assay plates via centrifugation and placed at 37° C. 5% CO2 for twenty-four hours before treatment. […] Assay plates are incubated with compound for 3 days and are then analysed using CellTiter-Glo 2.0. All data points are collected via automated processes and are subject to quality control and analysed using Horizon's software.
(§5) Growth Inhibition (GI) is utilized as a measure of cell growth. The GI percentages are calculated by applying the following test and equation: If T<V_0: 100*(1−(T−V_0)/V_0) If T≥V_0: 100*(1−(T−V_0)/(V−V_0)) where T is the signal measure for a test article, V is the untreated/vehicle-treated control measure, and Vo is the untreated/vehicle control measure at time zero (also colloquially referred as T0 plates). This formula is derived from the Growth Inhibition calculation used in the National Cancer Institute's NCI-60 high throughput screen. For the purposes of this report, all data analysis was performed in Growth Inhibition (except where noted).
(§6) A GI of 100% represents complete growth inhibition (cytostasis) and in this case cells treated with compound for 3 days would have the same endpoint reading as TO control cells. A GI of 200% represents complete death (cytotoxicity) of all cells in the culture well and in this case the T reading at 3 days will be lower than the TO control (values near or at zero).
(§7) Horizon also provides Inhibition as a measure of cell viability. Inhibition levels of 0% represent no inhibition of cell growth by treatment. Inhibition of 100% represents no doubling of cell numbers during the treatment window. Both cytostatic and cytotoxic treatments can yield an Inhibition percentage of 100%. Inhibition percentage is calculated as the following: I=1−T/U where T is the treated and U is the untreated/vehicle control.

[5] = system: MOLT-4; assay: High Throughput Screen for growth inhibition, MOLT-4; assay type: cell-based; details: MOLT-4, Leukemia; 3 days; unit not given
Method: as §3, §4, §5, §6, §7

[6] = system: BICR16; assay: High Throughput Screen for growth inhibition, BICR16; assay type: cell-based; details: BICR16, Head and Neck; 3 days; unit not given
Method: as §3, §4, §5, §6
(§8) Horizon also provides Inhibition as a measure of cell viability. Inhibition levels of 0% represent no inhibition of cell growth by treatment. […] Inhibition percentage is calculated as the following: I=1−T/U where T is the treated and U is the untreated/vehicle control.

[7] = system: HEC-50B; assay: High Throughput Screen for growth inhibition, HEC-50B; assay type: cell-based; details: Endometrial (uterine), 3 days, unit not given
Method: as §3, §4
as §5, with “For the purposes of this report, all data analysis was performed in Growth Inhibition (except where noted).” left out

[8] = system: LUDLU-1; assay: High Throughput Screen for growth inhibition, LUDLU-1; assay type: cell-based; details: LUDLU-1, LUSC; 3 days; unit not given
Method: as §3, §4, §5, §6, §8

[9] = system: Kasumi-1; assay: High Throughput Screen for growth inhibition, Kasumi-1; assay type: cell-based; details: Kasumi-1, Leukemia; 3 days; unit not given
Method: as §3, §4
as §5, with “For the purposes of this report, all data analysis was performed in Growth Inhibition (except where noted).” left out

[10] = system: HCT-116; assay: High Throughput Screen for growth inhibition, HCT-116; assay type: cell-based; details: HCT-116, Colon; 3 days; unit not given
Method: as §3, §4
as §5, with “For the purposes of this report, all data analysis was performed in Growth Inhibition (except where noted).” left out

[11] = system: SW480; assay: High Throughput Screen for growth inhibition, SW480; assay type: cell-based; details: SW480, Colon; 3 days; unit not given
Method: as §3, §4
as §5, with “For the purposes of this report, all data analysis was performed in Growth Inhibition (except where noted).” left out

[12] = system: SUM159PT; assay: High Throughput Screen for growth inhibition, SUM159PT; assay type: cell-based; details: Breast, 3 days, unit not given
Method: as §3, §4
as §5, with “For the purposes of this report, all data analysis was performed in Growth Inhibition (except where noted).” left out

IC50 [1]: 16.7 ± 2.6 µM
SMILES: COC(=O)C1COC(c2ccc(OC)cc2)N1 (centres unmarked) [ALK-12]

IC50 [1]: 29.8 ± 2.9 µM
SMILES: COC(=O)C1COC(c2ccccc2F)N1 (centres unmarked) [ALK-14]

IC50 [1]: 18.2 ± 2.3 µM
SMILES: COC(=O)C1COC(c2ccccc2OC)N1 (centres unmarked) [ALK-15]

inhibition of ALKBH5 at the highest concentration measured [1]: no measurable inhibition
SMILES: Oc1ccc2cc(-c3cncnc3)ccc2c1 [FTO-1, 6-(pyrimidin-5-yl)naphthalen-2-ol]

SMILES: COc1ncc(-c2cccc(OCc3ccccc3)c2)cn1 [FTO-3, 5-(3-(benzyloxy)phenyl)-2-methoxypyrimidine]
precipitation in assay buffer [2]: significant precipitation in assay buffer

inhibition of ALKBH5 at the highest concentration measured [1]: no measurable inhibition
SMILES: COc1ccc2cc(-c3cncnc3)ccc2c1 [FTO-5, 5-(6-methoxynaphthalen-2-yl)pyrimidine]

inhibition of ALKBH5 at the highest concentration measured [1]: no measurable inhibition
SMILES: Cc1ccc2cc(-c3cncnc3)ccc2n1 [FTO-7, 2-methyl-6-(pyrimidin-5-yl)quinoline]

SMILES: Nc1ncc(-c2cccc(Nc3ccccc3)c2)cn1 [FTO-9, 5-(3-(phenylamino)phenyl)pyrimidin-2-amine]
preference (selectivity) between FTO and ALKBH5 ([2]; ratio of potency towards FTO and ALKBH5): almost ten times more potent towards ALKBH5

SMILES: Nc1ncc(-c2ccc3cc(O)ccc3c2)cn1 [FTO-10, 6-(2-aminopyrimidin-5-yl)naphthalen-2-ol]
size of tumorospheres [3]: significant reduction in size of the tumorospheres

SMILES: COc1ncc(-c2ccc3nc(C)ccc3c2)cn1 [FTO-11, 6-(2-methoxypyrimidin-5-yl)-2-methylquinoline]
size of tumorospheres [3]: significant reduction in size of the tumorospheres

inhibition of ALKBH5 at the highest concentration measured [1]: no measurable inhibition
SMILES: COc1ccc2cc(-c3cnc(N)nc3)ccc2c1 [FTO-12, 5-(6-methoxynaphthalen-2-yl)pyrimidin-2-amine]
size of tumorospheres [3]: significant reduction in size of the tumorospheres

SMILES: COCCNc1ncc(-c2ccc3cc(OC)ccc3c2)cn1 [FTO-15, N-(2-methoxyethyl)-5-(6-methoxynaphthalen-2-yl)pyrimidin-2-amine]
precipitation in assay buffer [2]: significant precipitation in assay buffer

inhibition of ALKBH5 at the highest concentration measured [1]: no measurable inhibition
SMILES: COCCNc1ncc(-c2ccc(OCc3ccccc3)cc2)cn1 [FTO-18, 5-(4-(benzyloxy)phenyl)-N-(2-methoxyethyl)pyrimidin-2-amine]

SMILES: c1ccc(-c2ccc(CNCC3(N4CCCC4)COC3)s2)cc1 [TR-FTO-38]
Growth Inhibition (GI) Values [4]: 23.3
Growth Inhibition (GI) Values [5]: 24.366
Growth Inhibition (GI) Values [6]: 29.832
Growth Inhibition (GI) Values [7]: 14.018
Growth Inhibition (GI) Values [8]: 31.952

SMILES: Clc1ccccc1-c1ccc(CNCC2(N3CCCC3)COC2)o1 [TR-FTO-43 N]
Growth Inhibition (GI) Values [9]: 18.136
Growth Inhibition (GI) Values [4]: 21.005
Growth Inhibition (GI) Values [5]: 24.595
Growth Inhibition (GI) Values [6]: 25.212
Growth Inhibition (GI) Values [10]: 31.451
Growth Inhibition (GI) Values [8]: 28.561
Growth Inhibition (GI) Values [11]: 28.499

SMILES: FC1CCN(C2(CNCc3ccc(-c4ccccc4Cl)o3)COC2)C1 (centres unmarked) [TR-FTO-49 N]
Growth Inhibition (GI) Values [5]: 27.521

SMILES: c1cncc(CNc2ccc(CNC3CC3)cn2)c1 [TR-YTH-05]
Growth Inhibition (GI) Values [4]: 6.35
Growth Inhibition (GI) Values [12]: 8.629
